Experimental data: patent US20090306051A1, “Methods and compositions for the treatment of epilepsy, seizure disorders, and other CNS disorders” (priority 2004, published 2009)
Where two headings read alike, the source gives them in different places.

Assays:
[1] = cited from earlier work; for T½: as printed in head of release profile table, Example 3
[2] = system: mouse electroshock model; test: Dose ranging study in seizure model (mouse electroshock model); type: in vivo; conditions: seizure model (e.g., mouse electroshock model)
Excerpt: An isobolic experiment ensues where the drugs are combined in fractions of their EDXXs to add up to ED100 (i.e., ED50:ED50, ED25:ED75, etc.). The plot of the data is constructed. The experiment points that lie below the straight line between the ED50 points on the graph are indicative of synergy, points on the line are indicative of additive effects, and points above the line are indicative of inhibitory effects. The point of maximum deviation from the isobolic line is the optimal ratio. This is the optimal steady state ratio (Cratio,ss) and is adjusted based upon the component half-lives. Similar protocols may be applied in a wide variety of validated animal models.

[3] = Release profile (cumulative fraction released from formulation matrix to serum or gut environment); type: physicochemical
[4] = FIG. 2A, IR administration (memantine 20 mg bid, lamotrigine 200 mg qd); cited from earlier work

Row | Structure (SMILES) | Human PK (t½) in hrs ([1]; humans) | Tmax ([1]; humans) | Human PK (t½) ([1]; humans) | ED50 [2] | T½ [1] | cum. fraction ([3]; Time 1) | cum. fraction ([3]; Time 2) | cum. fraction ([3]; Time 4) | cum. fraction ([3]; Time 8) | cum. fraction ([3]; Time 12) | cum. fraction ([3]; Time 16) | cum. fraction ([3]; Time 20) | cum. fraction ([3]; Time 24) | Tmax [4] | T½ [4]
1 | NC(=O)N1c2ccccc2CC(=O)c2ccccc21 [Oxcarbazepine] | 2 hr for hrs | 4.5 h | – | – | – | – | – | – | – | – | – | – | – | – | –
2 | CC1(C)O[C@@H]2[C@@H](CO[C@@]3(COS(N)(=O)=O)OC(C)(C)O[C@@H]23)O1 [Topiramate] | – | 2 h | 21 h | approximately 5 μM | – | – | – | – | – | – | – | – | – | – | –
3 | NS(=O)(=O)Cc1noc2ccccc12 [Zonisamide] | – | 4 h | 63 h | – | ZONISAMIDE T½ = 60 hrs | 0.2 | 0.3 | 0.4 | 0.5 | 0.6 | 0.7 | 0.8 | 0.9 | – | –
4 | CC12CC3CC(C)(C1)CC(N)(C3)C2 [Memantine, 1-amino-3,5-dimethyladamantane] | – | – | – | approximately 12 μM | MEMANTINE T½ = 60 hrs | 0.2 | 0.3 | 0.4 | 0.5 | 0.6 | 0.7 | 0.8 | 0.9 | 3 h | –
5 | NCC1(CC(=O)O)CCCCC1 [Gabapentin] | – | 3 h | 6 h | – | – | – | – | – | – | – | – | – | – | – | –
6 | Nc1nnc(-c2cccc(Cl)c2Cl)c(N)n1 [Lamotrigine] | – | 2 h | 12 h | – | – | – | – | – | – | – | – | – | – | 2 h | 12 h
